Columns and labels:
[1] = Thermal stability test (residual ratio by HPLC after storage in glass bottles); assay type: physicochemical; conditions: for Residual ratio (%) After storage at 80° C. for 72 hours / Residual ratio (%) After storage at 100° C. for 24 hours / Residual ratio (%) After storage at 120° C. for 16 hours: glass bottles, HPLC area percentage
Protocol: A test compound was introduced into glass bottles, and the bottles were stored for certain time periods under temperature conditions of 80° C., 100° C., or 120° C. Subsequently, the residual ratio (%) of the pyrimidine compound (1) in the test compound was measured. Regarding the residual ratio, the proportion of the pyrimidine compound (1) contained in the test compound was measured as the peak area percentage using high performance liquid chromatography. In regard to the measurement by high performance liquid chromatography, an ODS column was used as a column, and a mixture of two kinds, namely, a 0.1% aqueous solution of TFA and a 0.1% acetonitrile solution of TFA, was used as a solvent. The detection wavelength was 242 nm. The residual ratio was calculated by the following calculation expression from the area percentage of the pyrimidine compound (1) thus obtained. Residual ratio (%)=Area percentage of pyrimidine compound (1) after storage/area percentage of pyrimidine compound (1) before storage×100 As the test compound, the crystals (crystals of pyrimidine compound (1) hydrochloride) obtained in Reference Example 1-3, and the free form of the pyrimidine compound (1) were used.

[2] = system: LDL cholesterol in blood plasma; experiment: Evaluation of combined use of statin and CETP inhibitor: blood plasma LDL cholesterol after two weeks oral administration in guinea pigs; assay type: in vivo, guinea pigs (Slc: Hartley); conditions: for Amount of LDL cholesterol in blood plasma: male guinea pigs, average ± standard deviation; for Amount of LDL cholesterol in blood plasma / Plasma LDL cholesterol lowering ratio: oral, two weeks
Protocol: Male guinea pigs (six weeks old, Slc: Hartley, Japan SLC, Inc.) were used for the experiment. Blood was collected from the jugular vein, and the guinea pigs were grouped on the basis of the total plasma cholesterol level and body weight.
After completion of repeated administration, blood was collected under anesthesia with pentobarbital, and the amount of LDL cholesterol in blood plasma (mg/dl. Hereinafter, described as “amount of LDL cholesterol in blood plasma”) was measured using high performance liquid chromatography according to the method by Usui, et al. (Usui et al., Clin. Chem., 46, 63-72 (2000)).
The group configuration consisted of the following four items, and six guinea pigs were used for each group.
(2) Pitavastatin single administration group: Pitavastatin calcium pentahydrate was orally administered at a dose of 1 mg/kg of body weight.
The amount of LDL cholesterol in blood plasma was obtained as an average value ±standard deviation.
Furthermore, the proportions of lowering of LDL cholesterol in blood plasma in the various drug administration groups (“plasma LDL cholesterol lowering ratios”) were calculated by the expression described below, from the average values of the amounts of LDL cholesterol in blood plasma of the control group and the various drug administration groups.
Plasma LDL cholesterol lowering ratio (%)=[(Cc−Ct)/Cc]×100
wherein Cc represents the average value of the amount of LDL cholesterol in blood plasma in the control group; and Ct represents the average value of the amount of LDL cholesterol in blood plasma of each of the various drug administration groups.
Furthermore, the average values of the amounts of LDL cholesterol in blood plasma of each of the various drug administration groups in a case in which the average value of the amount of LDL cholesterol in blood plasma of the control group was designated as 1, were calculated as relative indices.
Furthermore, determination of a synergistic effect according to Bulge formula was implemented.

[3] = Test Example 1-2, control group designated as 1, pitavastatin 1 mg/kg, anacetrapib 30 mg/kg
[4] = Test Example 1-2, pitavastatin 1 mg/kg, anacetrapib 30 mg/kg, control 18.5 ± 4.8
[5] = Test Example 1-2, vs control group, pitavastatin 1 mg/kg, anacetrapib 30 mg/kg
[6] = Test Example 1-1, [(Cc−Ct)/Cc]×100 vs control group, pitavastatin 1 mg/kg, pyrimidine compound (1) 30 mg/kg
[7] = Test Example 1-1, average plasma LDL cholesterol with control group designated as 1, pitavastatin 1 mg/kg, pyrimidine compound (1) 30 mg/kg
[8] = Test Example 1-1, pitavastatin calcium pentahydrate 1 mg/kg, pyrimidine compound (1) monohydrochloride 30 mg/kg, six per group, control 22.4 ± 2.9

Row | Residual ratio (%) After storage at 80° C. for 72 hours [1] [%] | Residual ratio (%) After storage at 100° C. for 24 hours [1] [%] | Residual ratio (%) After storage at 120° C. for 16 hours [1] [%] | Thermal stability ([1]; conclusion from Table 10) | SMILES | Relative index [2, 3] | Amount of LDL cholesterol in blood plasma [2, 4] [mg/dL] | Plasma LDL cholesterol lowering ratio [2, 5] [%] | Plasma LDL cholesterol lowering ratio [2, 6] [%] | Relative index [2, 7] | Amount of LDL cholesterol in blood plasma [2, 8] [mg/dL]
1 | 100.0 | 100.0 | 99.5 | excellent thermal stability | CCN(C[C@H]1CC[C@H](CC(=O)O)CC1)c1ccc(C(F)(F)F)cc1CN(c1ncc(OCCS(C)(=O)=O)cn1)[C@@H](C)c1cc(C(F)(F)F)cc(C(F)(F)F)c1.Cl [(S)-trans-{4-[({2-[({1-[3,5-bis(trifluoromethyl)phenyl]ethyl}{5-[2-(methylsulfonyl)ethoxy]pyrimidin-2-yl}amino)methyl]-4-(trifluoromethyl)phenyl}(ethyl)amino)methyl]cyclohexyl}acetic acid hydrochloride] |  |  |  |  |  | 
2 |  |  |  |  | COc1cc(F)c(C(C)C)cc1-c1ccc(C(F)(F)F)cc1CN1C(=O)O[C@H](c2cc(C(F)(F)F)cc(C(F)(F)F)c2)[C@@H]1C [Anacetrapib] | 0.98 | 18.2 ± 4.1 | 2 |  |  | 
3 | 99.5 | 89.3 | 71.5 |  | CCN(C[C@H]1CC[C@H](CC(=O)O)CC1)c1ccc(C(F)(F)F)cc1CN(c1ncc(OCCS(C)(=O)=O)cn1)[C@@H](C)c1cc(C(F)(F)F)cc(C(F)(F)F)c1 [Free form of pyrimidine compound (1), (S)-trans-{4-[({2-[({1-[3,5-bis(trifluoromethyl)phenyl]ethyl}{5-[2-(methylsulfonyl)ethoxy]pyrimidin-2-yl}amino)methyl]-4-(trifluoromethyl)phenyl}(ethyl)amino)methyl]cyclohexyl}acetic acid] |  |  |  |  |  | 
4 |  |  |  |  | O=C(O)C[C@H](O)C[C@H](O)/C=C/c1c(C2CC2)nc2ccccc2c1-c1ccc(F)cc1 [Pitavastatin, (+)-monocalcium is[(3R,5S,6E)-7-[2-cyclopropyl-4-(4-fluorophenyl)-3-quinolyl]-3,5-dihydroxy-6-heptenoate}] | 0.62 | 11.5 ± 3.3 | 38 | 31 | 0.69 | 15.5 ± 3.9
5 |  |  |  |  | CCN(C[C@H]1CC[C@H](CC(=O)O)CC1)c1ccc(C(F)(F)F)cc1CN(c1ncc(OCCS(C)(=O)=O)cn1)[C@@H](C)c1cc(C(F)(F)F)cc(C(F)(F)F)c1 [Pyrimidine compound (1), (S)-trans-{4-[({2-[({1-[3,5-bis(trifluoromethyl)phenyl]ethyl}{5-[2-(methylsulfonyl)ethoxy]pyrimidin-2-yl}amino)methyl]-4-(trifluoromethyl)phenyl}(ethyl)amino)methyl]cyclohexyl}acetic acid] |  |  |  | 16 | 0.84 | 18.9 ± 3.8
